Test results: patent US20120134977A1 (YEDA RESEARCH AND DEVELOPMENT CO. LTD., priority 2009, published 2012)

Tests used:
[1] = biological target: human serum albumin (HSA) (Homo sapiens, UniProt P02768); experiment: Isothermal scanning calorimetry (ITC) of ligand association with HSA; format: binding; settings: for Kd: ligand 400 μM injected into HSA 10 μM, PBS pH 7.4, 23° C., read-out: Association-constant to HSA K (Ka) (converted)
Experimental: The data was obtained for 15 automatic injections each of 2.7 The total duration of the experiments was 45 min (2A). […] Sample cell contained HSA at a concentration of 10 μM. Both components were dissolved in PBS-buffer pH=7.4. The experiment was conducted at 23° C.
(iv) Isothermal scanning calorimetry measurements were performed with iTC200 microcalorimeter (MicroCal LLC, Nothampton Mass., USA), according to the manufacturer's instructions.

[2] = tested on: E. Coli; settings: previously disclosed (Shechter et al., 2002; Marcus et al., 2008); read-out: IC50, inhibition of E. Coli replication; cited from earlier work
[3] = biological target: HSA (Homo sapiens, UniProt P02768); settings: immobilized HSA binding strategy, Markusen et al., 1996; cited from earlier work
[4] = background statement; cited from earlier work
[5] = tested on: CD1-mice; settings: at any dosage, previously described; cited from earlier work

Sequence of human serum albumin (HSA) (P02768 25-609): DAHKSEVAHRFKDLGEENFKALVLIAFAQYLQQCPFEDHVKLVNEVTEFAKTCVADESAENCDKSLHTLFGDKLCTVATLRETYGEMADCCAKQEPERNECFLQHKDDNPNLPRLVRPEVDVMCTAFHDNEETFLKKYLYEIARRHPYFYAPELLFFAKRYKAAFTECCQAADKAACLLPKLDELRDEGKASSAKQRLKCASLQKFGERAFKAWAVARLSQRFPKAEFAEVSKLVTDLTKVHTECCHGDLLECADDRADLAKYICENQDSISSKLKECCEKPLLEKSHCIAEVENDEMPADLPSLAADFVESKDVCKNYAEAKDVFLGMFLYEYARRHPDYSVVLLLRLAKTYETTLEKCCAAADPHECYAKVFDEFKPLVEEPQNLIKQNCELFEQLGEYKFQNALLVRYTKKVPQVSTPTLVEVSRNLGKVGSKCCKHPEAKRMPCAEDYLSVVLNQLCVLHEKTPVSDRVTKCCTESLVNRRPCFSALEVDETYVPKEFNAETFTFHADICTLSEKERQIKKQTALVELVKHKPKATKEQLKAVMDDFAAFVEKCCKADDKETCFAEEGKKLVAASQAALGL
Sequence of HSA (P02768 25-609): as above

With O=C(O)CCCCCCCCCCSC1CC(=O)NC1=O (stereo not shown) the Kd [1] was 7.69 µM.
Compound O=C(O)CNC(=O)OCC1c2cc(NC(=O)CCN3C(=O)C=CC3=O)ccc2-c2ccc(S(=O)(=O)O)cc21 (stereo not shown) [Glycine-FMS-MAL, 2-(((2-(3-(2,5-dioxo-2,5-dihydro-1H-pyrrol-1-yl)propanamido)-7-sulfo-9H-fluoren-9-yl)methoxy)carbonylamino)acetic acid] has a Kd [1] of 7.14 µM.
O=C(O)CCCCCCCCCCCCCCCSC1CC(=O)NC1=O (stereo not shown) [MAL-S—(CH2)15—COOH, 16-(2,5-dioxopyrrolidin-3-ylthio)hexadecanoic acid] gave a Kd [1] of 6.45 µM.
In the case of Gentamicin, the IC50 [2] is given as 2.1 ± 0.2 µM.
For “N^εB29-tetradecanoyl des(B30) insulin [insulin-detemir]”, the “Ka, binding affinity to HSA” value [3] is given as 2.4±0.7×10^5 M^−1, the duration of action [4] is given as “up to 24 hours” and the “N (binding sites, OneSites model)” value ([1]; PBS pH 7.4) is given as 0.693±0.0430 sites. For the same compound, the “ΔH of binding to HSA” value ([1]; PBS pH 7.4) was -4.575 ± 0.4067 kcal/mol and the “ΔS of binding to HSA” value ([1]; PBS pH 7.4) was 6.79 (cal/mol)/deg.
In the case of exendin-4, the “threshold decrease of circulating blood glucose level” value [5] is given as 27±3%.
